Test results as given in patent US9125913B2, “Bcl-2-selective apoptosis-inducing agents for the treatment of cancer and immune diseases” (AbbVie Inc., priority 2008, dated 2015).

Legend:
[1] = system: GST-Bcl-2; experiment: TR-FRET binding assay, Bcl-2; conditions: TR-FRET Ki values
Summary of the method: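 Ki values come from Wang's competitive-binding equation applied to TR-FRET signal (excitation 340/35 nm; emission 520/525 nm F-Bak peptide, 495/510 nm Tb antibody). Protein, probe and antibody incubated with compound 3 h at room temperature; dilution series began at 50 μM as 2× stock in 10% DMSO.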

[2] = system: FL5.12/Bcl-2 cells; experiment: FL5.12/Bcl-2 cell viability assay; assay type: cell-based, murine; conditions: ratio of canine platelet EC50 to FL5.12/Bcl-2 EC50
Text: FL5.12 is an IL-3 dependent prolymphocytic murine cell line that undergoes apoptosis upon IL-3 withdrawal as a result of the upregulation of pro-apoptotic Bcl-2 proteins such as Bim and Puma. Stable overexpression of anti-apoptotic Bcl-2 protein (FL5.12/Bcl-2) protects against apoptosis induced by IL-3 withdrawal by sequestration of Bim and Puma. […] The ability of compounds to kill FL5.12/Bcl-2 cells upon IL-3 withdrawal is a direct measure of the compounds' ability to inhibit anti-apoptotic Bcl-2 protein function.
Wild type FL5.12/Bcl-2 overexpressing stable transfectants were cultured in RPMI-1640 supplemented with 2 mM L-glutamine, 10% FBS, 1 mM sodium pyruvate, 2 mM HEPES, 1% penicillin/streptomycin (Invitrogen), 57 μM β-ME, and 10% WEHI-3B conditioned medium (source of IL-3) and maintained at 37° C. containing 5% CO2. 1×10^6 cells/ml were washed 1×PBS and resuspended in medium not supplemented with 10% WEHI-3B for 48 hrs prior to cytotoxicity assays. Cells were then treated for an additional 24 hrs in the presence of various concentrations of the indicated compounds. Cell viability was assessed by CellTitre Glo assay (Promega Corp.) according to the manufacturer's recommendations.

SMILES | Binding selectivity ratio (Bcl-XL Ki/Bcl-2 Ki) [1] | Selectivity Ratio (Platelet EC50/FL5.12/Bcl-2 EC50) [2]
CC1(C)CCC(CN2CCN(c3ccc(C(=O)NS(=O)(=O)c4ccc(NCCCN5CCOCC5)c([N+](=O)[O-])c4)c(Oc4ccc5c(c4)CCCN5)c3)CC2)=C(c2ccc(Cl)cc2)C1 [Example 22, 4-(4-{[2-(4-chlorophenyl)-4,4-dimethylcyclohex-1-en-1-yl]methyl}piperazin-1-yl)-N-({4-[(3-morpholin-4-ylpropyl)amino]-3-nitrophenyl}sulfonyl)-2-(1,2,3,4-tetrahydroquinolin-6-yloxy)benzamide] | 20.2 | >61
CN(C)CCCNc1ccc(S(=O)(=O)NC(=O)c2ccc(N3CCN(Cc4ccccc4-c4ccc(Cl)cc4)CC3)cc2Oc2cccc3[nH]ccc23)cc1[N+](=O)[O-] [Example 46, 4-{4-[(4′-chloro-1,1′-biphenyl-2-yl)methyl]piperazin-1-yl}-N-[(4-{[3-(dimethylamino)propyl]amino}-3-nitrophenyl)sulfonyl]-2-(1H-indol-4-yloxy)benzamide] | 119.2 | 725
CN1CCC(Nc2ccc(S(=O)(=O)NC(=O)c3ccc(N4CCN(CC5=C(c6ccc(Cl)cc6)CCCCC5)CC4)cc3Oc3ccc4[nH]ccc4c3)cc2[N+](=O)[O-])CC1 [Example 151, 4-(4-{[2-(4-chlorophenyl)cyclohept-1-en-1-yl]methyl}piperazin-1-yl)-2-(1H-indol-5-yloxy)-N-({4-[(1-methylpiperidin-4-yl)amino]-3-nitrophenyl}sulfonyl)benzamide] | >4074.1 | 642
CN1CCC(Nc2ccc(S(=O)(=O)NC(=O)c3ccc(N4CCN(CC5=C(c6ccc(Cl)cc6)CCCC5)CC4)cc3Oc3ccc4[nH]ccc4c3)cc2[N+](=O)[O-])CC1 [Example 75, 4-(4-{[2-(4-chlorophenyl)cyclohex-1-en-1-yl]methyl}piperazin-1-yl)-2-(1H-indol-5-yloxy)-N-({4-[(1-methylpiperidin-4-yl)amino]-3-nitrophenyl}sulfonyl)benzamide] | 852.2 | 821
CN1CCC(Nc2ccc(S(=O)(=O)NC(=O)c3ccc(N4CCN(CC5=C(c6ccc(Cl)cc6)CC(C)(C)CC5)CC4)cc3Oc3ccc4c(c3)CCCN4)cc2[N+](=O)[O-])CC1 [Example 23, 4-(4-{[2-(4-chlorophenyl)-4,4-dimethylcyclohex-1-en-1-yl]methyl}piperazin-1-yl)-N-({4-[(1-methylpiperidin-4-yl)amino]-3-nitrophenyl}sulfonyl)-2-(1,2,3,4-tetrahydroquinolin-6-yloxy)benzamide] | 25.3 | >35
CC1(C)CCC(CN2CCN(c3ccc(C(=O)NS(=O)(=O)c4ccc(NCCCN5CCOCC5)c([N+](=O)[O-])c4)c(Oc4cccc5[nH]ccc45)c3)CC2)=C(c2ccc(Cl)cc2)C1 [Example 55, 4-(4-{[2-(4-chlorophenyl)-4,4-dimethylcyclohex-1-en-1-yl]methyl}piperazin-1-yl)-2-(1H-indol-4-yloxy)-N-({4-[(3-morpholin-4-ylpropyl)amino]-3-nitrophenyl}sulfonyl)benzamide] | 126.9 | 1614
CN1CCC(Nc2ccc(S(=O)(=O)NC(=O)c3ccc(N4CCN(CC5=C(c6ccc(Cl)cc6)CC(C)(C)CC5)CC4)cc3Oc3ccc4[nH]ccc4c3)cc2S(=O)(=O)C(F)(F)Cl)CC1 [Example 74, N-({3-{[chloro(difluoro)methyl]sulfonyl}-4-[(1-methylpiperidin-4-yl)amino]phenyl}sulfonyl)-4-(4-{[2-(4-chlorophenyl)-4,4-dimethylcyclohex-1-en-1-yl]methyl}piperazin-1-yl)-2-(1H-indol-5-yloxy)benzamide] | 1262.5 | 1989
CC1(C)CCC(CN2CCN(c3ccc(C(=O)NS(=O)(=O)c4ccc(NCCCN5CCCC5)c([N+](=O)[O-])c4)c(Oc4cccc5[nH]ccc45)c3)CC2)=C(c2ccc(OC(F)(F)F)cc2)C1 [Example 70, 4-[4-({4,4-dimethyl-2-[4-(trifluoromethoxy)phenyl]cyclohex-1-en-1-yl}methyl)piperazin-1-yl]-2-(1H-indol-4-yloxy)-N-({3-nitro-4-[(3-pyrrolidin-1-ylpropyl)amino]phenyl}sulfonyl)benzamide] | 62.4 | >450
CN1CCN(CCCNc2ccc(S(=O)(=O)NC(=O)c3ccc(N4CCN(CC5=C(c6ccc(Cl)cc6)CC(C)(C)CC5)CC4)cc3Oc3ccc4[nH]ccc4c3)cc2[N+](=O)[O-])CC1 [Example 96, 4-(4-{[2-(4-chlorophenyl)-4,4-dimethylcyclohex-1-en-1-yl]methyl}piperazin-1-yl)-2-(1H-indol-5-yloxy)-N-[(4-{[3-(4-methylpiperazin-1-yl)propyl]amino}-3-nitrophenyl)sulfonyl]benzamide] | 186.8 | 2043
O=C(NS(=O)(=O)c1ccc(NCCCN2CCCC2)c([N+](=O)[O-])c1)c1ccc(N2CCN(CC3=C(c4ccc(Cl)cc4)CCCCCC3)CC2)cc1Oc1cccc2[nH]ccc12 [Example 142, 4-(4-{[2-(4-chlorophenyl)cyclooct-1-en-1-yl]methyl}piperazin-1-yl)-2-(1H-indol-4-yloxy)-N-({3-nitro-4-[(3-pyrrolidin-1-ylpropyl)amino]phenyl}sulfonyl)benzamide] | 27.8 | >185
CN(C)CCOc1ccc(-c2ccc(Cl)cc2)c(CN2CCN(c3ccc(C(=O)NS(=O)(=O)c4ccc(NCCCN5CCCC5)c([N+](=O)[O-])c4)c(Oc4ccccc4)c3)CC2)c1 [Example 121, 4-[4-({4′-chloro-4-[2-(dimethylamino)ethoxy]-1,1′-biphenyl-2-yl}methyl)piperazin-1-yl]-N-({3-nitro-4-[(3-pyrrolidin-1-ylpropyl)amino]phenyl}sulfonyl)-2-phenoxybenzamide] | 388 | 8
O=C(NS(=O)(=O)c1ccc(NCC2CCOCC2)c([N+](=O)[O-])c1)c1ccc(N2CCN(Cc3c(OCCN4CCOCC4)cccc3-c3ccc(Cl)cc3)CC2)cc1Oc1cccc2[nH]ccc12 [Example 131, 4-(4-{[4′-chloro-3-(2-morpholin-4-ylethoxy)-1,1′-biphenyl-2-yl]methyl}piperazin-1-yl)-2-(1H-indol-4-yloxy)-N-({3-nitro-4-[(tetrahydro-2H-pyran-4-ylmethyl)amino]phenyl}sulfonyl)benzamide] | 2292.2 | >1597
CN(C)CCCNc1ccc(S(=O)(=O)NC(=O)c2ccc(N3CCN(CC4=C(c5ccc(Cl)cc5)CCC(C)(C)C4)CC3)cc2Oc2cccc3[nH]ccc23)cc1[N+](=O)[O-] [Example 56, 4-(4-{[2-(4-chlorophenyl)-5,5-dimethylcyclohex-1-en-1-yl]methyl}piperazin-1-yl)-N-[(4-{[3-(dimethylamino)propyl]amino}-3-nitrophenyl)sulfonyl]-2-(1H-indol-4-yloxy)benzamide] | 48.2 | 554
